Data on 27 compounds can be found in ChEMBL document CHEMBL1152604, “Design, synthesis and biological evaluation of tripeptide boronic acid proteasome inhibitors” (Bioorg Med Chem, 2009).

Broadly, the IC50 is the concentration at which inhibition is half-maximal.

The nature of assay [1]: Inhibition of peptidylglutamyl peptide-hydrolyzing activity of mouse liver 20S proteasome.
Assay [2] can be described thus: Inhibition of chymotrypsin-like activity of mouse liver 20S proteasome.
The nature of assay [3]: Inhibition of trypsin-like activity of mouse liver 20S proteasome.
A further assay concerns U-266. As to the kind of experiment: Cytotoxicity against human U266 cells after 72 hrs by MTT assay. In kind it is functional, cell-based. The following applies: U-266, 72 h. For orientation: Tetrazolium dyes change colour on reduction, which living cells bring about.
The test system of another assay is BGC-823. As to the kind of experiment: Cytotoxicity against human BGC823 cells after 72 hrs by MTT assay. In kind it is functional, cell-based. The following applies: BGC-823, 72 h.
The next assay relates to BXPC-3. As to the kind of experiment: Cytotoxicity against human BxPC3 cells after 72 hrs by MTT assay. In kind it is functional, cell-based. As to conditions: BXPC-3, 72 h.
The subject of another assay is HL-60. As to the kind of experiment: Cytotoxicity against human HL60 cells after 72 hrs by MTT assay. In kind it is functional, cell-based. The following applies: HL-60, 72 h.

For `CC(C)C[C@H](NC(=O)c1cnccn1)C(=O)N[C@@H](Cc1ccc2ccccc2c1)C(=O)N[C@H](CC(C)C)B1O[C@@H]2[C@@H](C[C@H]3C[C@@H]2C3(C)C)O1`, the 50% inhibitory concentration (IC50) in assay [1] is 3.91 nM; in assay [2], 0.37 nM; in assay [3] it was greater than 20 nM.
On to `CC(C)C[C@H](NC(=O)[C@H](Cc1ccccc1)NC(=O)c1cnccn1)C(=O)N[C@H](CC(C)C)B(O)O`, for which the IC50 was 5.66 nM in assay [1], 0.173 nM in assay [2] and greater than 20 nM in assay [3].
Turning to `CC(C)C[C@@H](NC(=O)[C@H](Cc1ccccc1)NC(=O)[C@H](Cc1c[nH]c2ccccc12)NC(=O)c1cnccn1)B(O)O`, the IC50 in assay [1], in assay [2] and in assay [3] was greater than 20 nM throughout.
As for `CC(C)C[C@@H](NC(=O)[C@H](Cc1ccc2ccccc2c1)NC(=O)[C@H](Cc1ccccc1)NC(=O)c1cnccn1)B(O)O`, the IC50 with U-266 is 15.8 nM; in assay [1] it was 3.8 nM; in assay [2], 0.111 nM; with BGC-823 it was 1040 nM; in assay [3] it was greater than 20 nM; in the assay on BXPC-3, 28.7 nM. The IC50 with HL-60 is 7.4 nM.
Consider `CC(C)C[C@H](NC(=O)[C@H](Cc1ccccc1)NC(=O)c1cnccn1)C(=O)N[C@H](CC(C)C)B1O[C@@H]2[C@@H](C[C@H]3C[C@@H]2C3(C)C)O1`, for which the IC50 in assay [1] was 2.73 nM; in assay [2], 0.287 nM; in assay [3], greater than 20 nM.
For `CC(C)C[C@H](NC(=O)c1cnccn1)C(=O)N[C@@H](Cc1ccccc1)C(=O)N[C@H](CC(C)C)B1O[C@@H]2[C@@H](C[C@H]3C[C@@H]2C3(C)C)O1`, the IC50 is 3.4 nM in assay [1], 0.431 nM in assay [2] and greater than 20 nM in assay [3].
The like results for `CC(C)C[C@@H](NC(=O)[C@H](Cc1ccccc1)NC(=O)[C@H](Cc1ccc(O)cc1)NC(=O)c1cnccn1)B1O[C@@H]2[C@@H](C[C@H]3C[C@@H]2C3(C)C)O1` were, in that order, 4.76 nM, 0.295 nM and greater than 20 nM.
Take `CC(C)C[C@@H](NC(=O)[C@H](Cc1ccccc1)NC(=O)[C@H](Cc1ccccc1)NC(=O)c1cnccn1)B1O[C@@H]2[C@@H](C[C@H]3C[C@@H]2C3(C)C)O1`: the values for the IC50 in assay [1], in assay [2] and in assay [3] were 8.33 nM, 0.402 nM and greater than 20 nM, respectively.
On the same counts, the results for `CC(C)C[C@H](NC(=O)[C@H](Cc1ccccc1)NC(=O)c1cnccn1)B(O)O` [BORTEZOMIB] are greater than 20 nM, 0.161 nM and greater than 20 nM.
With `CC(C)C[C@@H](NC(=O)[C@H](Cc1ccc(O)cc1)NC(=O)[C@H](Cc1ccccc1)NC(=O)c1cnccn1)B(O)O`, the concentration for half-maximal inhibition (IC50) is 250 nM in the assay with U-266; 4.01 nM in assay [1]; 0.395 nM in assay [2]; 5140 nM in the assay on BGC-823; greater than 20 nM in assay [3]; 445 nM in the assay with BXPC-3. The compound also came in with a 50% inhibitory concentration (IC50) in the assay with HL-60 of 552 nM.
On to `CC(C)C[C@@H](NC(=O)C(Cc1ccc(O)cc1)NC(=O)[C@H](Cc1ccccc1)NC(=O)c1cnccn1)B1O[C@@H]2[C@@H](C[C@H]3C[C@@H]2C3(C)C)O1` (some centres undefined), for which the IC50 in assay [1] was 5.39 nM; in assay [2] it was 0.335 nM; in assay [3], greater than 20 nM.
On the same counts, the results for `CC(C)C[C@@H](NC(=O)[C@H](Cc1c[nH]c2ccccc12)NC(=O)[C@H](Cc1ccccc1)NC(=O)c1cnccn1)B1O[C@@H]2[C@@H](C[C@H]3C[C@@H]2C3(C)C)O1` are greater than 20 nM, greater than 20 nM and greater than 20 nM.
As to `CC(C)C[C@@H](NC(=O)[C@H](Cc1ccc2ccccc2c1)NC(=O)[C@H](Cc1ccc2ccccc2c1)NC(=O)c1cnccn1)B(O)O`, the IC50 in the assay with U-266 is 195 nM; in assay [1], greater than 20 nM; in assay [2] it was 0.335 nM; with BGC-823, 2450 nM; in assay [3] it was greater than 20 nM; in the assay with BXPC-3, 33.3 nM. This compound also came in with an IC50 in the assay on HL-60 of 19.6 nM.
`CC(C)C[C@@H](NC(=O)[C@H](Cc1c[nH]c2ccccc12)NC(=O)[C@H](Cc1ccccc1)NC(=O)c1cnccn1)B(O)O`: the half-inhibitory concentration (IC50) in assay [1], in assay [2] and in assay [3] was greater than 20 nM each time.
For `CC(C)C[C@H](NC(=O)[C@H](Cc1ccc2ccccc2c1)NC(=O)c1cnccn1)C(=O)N[C@H](CC(C)C)B(O)O`, the IC50 with U-266 was 120 nM; in assay [1], 12.8 nM; in assay [2] it was 0.22 nM; in the assay with BGC-823, 1720 nM; in assay [3] it was greater than 20 nM; in the assay on BXPC-3, 43.5 nM. The midpoint of inhibition with HL-60, the IC50, lay at 15 nM.
Turning to `CC(C)C[C@@H](NC(=O)[C@H](Cc1ccccc1)NC(=O)[C@H](Cc1c[nH]c2ccccc12)NC(=O)c1cnccn1)B1O[C@@H]2[C@@H](C[C@H]3C[C@@H]2C3(C)C)O1`, the IC50 in assay [1], in assay [2] and in assay [3] was greater than 20 nM throughout.
In the case of `CC(C)C[C@@H](NC(=O)[C@H](Cc1ccccc1)NC(=O)[C@H](Cc1ccc2ccccc2c1)NC(=O)c1cnccn1)B1O[C@@H]2[C@@H](C[C@H]3C[C@@H]2C3(C)C)O1`, the IC50 in assay [1] was greater than 20 nM; in assay [2], 0.22 nM; in assay [3] it was greater than 20 nM.
For `CC(C)C[C@@H](NC(=O)[C@H](Cc1ccccc1)NC(=O)[C@H](Cc1ccc2ccccc2c1)NC(=O)c1cnccn1)B(O)O`, the IC50 in the assay with U-266 was 53 nM; in assay [1] it was 4.43 nM; in assay [2], 0.417 nM; in the assay with BGC-823 it was 2800 nM; in assay [3] it was greater than 20 nM; in the assay on BXPC-3, 31.8 nM. Besides, in the assay with HL-60, it took 10 nM to reach half-maximal inhibition (IC50).
For `CC(C)C[C@@H](NC(=O)[C@H](Cc1ccc2ccccc2c1)NC(=O)[C@H](Cc1ccccc1)NC(=O)c1cnccn1)B1O[C@@H]2[C@@H](C[C@H]3C[C@@H]2C3(C)C)O1`, the IC50 in assay [1] is greater than 20 nM; in assay [2], 0.443 nM; in assay [3], greater than 20 nM.
Take `CC(C)C[C@@H](NC(=O)[C@H](Cc1ccccc1)NC(=O)[C@H](Cc1ccccc1)NC(=O)c1cnccn1)B(O)O`: the IC50 in assay [1] was 10.9 nM; in assay [2] it was 0.546 nM; in assay [3], greater than 20 nM.
As to `CC(C)C[C@H](NC(=O)c1cnccn1)C(=O)N[C@@H](Cc1ccc2ccccc2c1)C(=O)N[C@H](CC(C)C)B(O)O`, the half-maximal inhibitory concentration (IC50) with U-266 is 9.9 nM; in assay [1], 3.63 nM; in assay [2], 0.079 nM; in the assay on BGC-823 it was 600 nM; in assay [3], greater than 20 nM; in the assay with BXPC-3, 21.2 nM. Besides, the half-inhibitory concentration (IC50) in the assay with HL-60 came out at 4.6 nM.
With `CC(C)C[C@@H](NC(=O)[C@H](Cc1ccccc1)NC(=O)[C@H](Cc1ccc(O)cc1)NC(=O)c1cnccn1)B(O)O`, the 50% inhibitory concentration (IC50) with U-266 was 66.2 nM; in assay [1], 2.5 nM; in assay [2], 0.263 nM; in the assay with BGC-823 it was 2460 nM; in assay [3], greater than 20 nM; with BXPC-3, 257 nM. In addition, in the assay with HL-60, the IC50 stood at 445 nM.
Turning to `CC(C)C[C@H](NC(=O)[C@H](Cc1ccc2ccccc2c1)NC(=O)c1cnccn1)C(=O)N[C@H](CC(C)C)B1O[C@@H]2[C@@H](C[C@H]3C[C@@H]2C3(C)C)O1`, the values for the half-maximal inhibitory concentration (IC50) in assay [1], in assay [2] and in assay [3] were 14.1 nM, 0.345 nM and greater than 20 nM, respectively.
The like results for `CC(C)C[C@@H](NC(=O)[C@H](Cc1ccc2ccccc2c1)NC(=O)[C@H](Cc1ccc2ccccc2c1)NC(=O)c1cnccn1)B1O[C@@H]2[C@@H](C[C@H]3C[C@@H]2C3(C)C)O1` were, in that order, greater than 20 nM, 0.495 nM and greater than 20 nM.
The like results for `CC(C)C[C@H](NC(=O)c1cnccn1)C(=O)N[C@@H](Cc1ccccc1)C(=O)N[C@H](CC(C)C)B(O)O` were, in that order, 5.14 nM, 0.19 nM and greater than 20 nM.
As for `CC(C)C[C@H](NC(=O)c1cnccn1)C(=O)N[C@@H](CC(C)C)C(=O)N[C@H](CC(C)C)B(O)O`, the concentration for half-maximal inhibition (IC50) in assay [1], in assay [2] and in assay [3] was greater than 20 nM in each case.
As to `CC(C)C[C@H](NC(=O)c1cnccn1)C(=O)N[C@@H](CC(C)C)C(=O)N[C@H](CC(C)C)B1O[C@@H]2[C@@H](C[C@H]3C[C@@H]2C3(C)C)O1`, the IC50 in assay [1], in assay [2] and in assay [3] was greater than 20 nM in each case.
